Laboratory results reported in patent US6531140B2, “Anti-irritant compositions containing a cyclic nucleotide” (E-L Management, priority 1999, dated 2003).

Tests used:
[1] = test system: skin irritation caused by Balsam of Peru; test: Balsam of Peru skin irritation test on ventral forearms of panelists (skin redness, Minolta Chromameter); type: in vivo, human; settings: topical; for Percent Reduction in the onset of irritation: Example 2, before Balsam of Peru
Source text: Eight female volunteer panelists between the ages of 21 and 55 having a history of skin sensitivity to Balsam of Peru are chosen for a study. […] The panelists have a history of skin reactivity to Balsam of Peru which manifests itself in the form of an immediate urticaria reaction. The test sites on the ventral forearms of the panelists are devoid of warts, nevi, moles, sunburn, suntan, scars and active dermal lesions. Pregnant or lactating volunteers are excluded. […] The composition is given time, about 20 minutes, to absorb into the skin on the forearm. Next, an irritant, Balsam of Peru, 8.00 percent in petrolatum, is applied to the test area of the skin and when redness appears within 30 to 40 minutes after application, Balsam of Peru is wiped off with a wet towel. Skin redness is measured with the Minolta Chromameter. Skin irritation is measured in terms of an increase in skin redness measured using a Minolta Chromameter and compared with a negative and a positive control. The positive control is the color of the skin treated solely with Balsam of Peru, and the negative control is the color of the skin treated with a cola […] solution in 10% hydroalcohol (1:1).

cAMP-PDE = settings: in vitro; cited from earlier work
cGMP-PDE = settings: in vitro; cited from earlier work
[2] = test system: inflammatory parameters in atopic dermatitis; settings: in vivo; cited from earlier work

Nc1ncnc2c1ncn2C1CC2OP(=O)(O)OCC2O1 (centres unmarked) [2′-deoxy cAMP, 2′-deoxy adenosine 3 ′5′ cyclic monophosphate]
reduction in the onset of irritation ([1]; Example 1, 0.5 percent in magnesium buffer, applied about 20 minutes before 8.00 percent Balsam of Peru in petrolatum, eight female panelists): 74%
Percent Reduction in the onset of irritation ([1]; 0.5% concentration): 71%
inhibition of cAMP-PDE (cAMP-PDE): specific and potent in vitro inhibitors

Nc1nc2c(ncn2[C@H]2C[C@@H]3OP(=O)(O)OC[C@H]3O2)c(=O)[nH]1 [2′-deoxy cGMP]
inhibition of cGMP-PDE (cGMP-PDE): specific and potent in vitro inhibitors

COc1ccc(C2CNC(=O)NC2)cc1O[C@H]1C[C@@H]2CC[C@H]1C2 [CP80,633]
reduction of inflammatory parameters [2]: significant reduction of inflammatory parameters

Cn1c(=O)c2c(ncn2C)n(C)c1=O [Caffeine, caffeine]
Percent Reduction in the onset of irritation ([1]; 1% concentration): 45%

CC(C)Cn1c(=O)n(C)c(=O)c2[nH]cnc21 [IBMX, 3-isobutyl 1-methyl xanthine]
Percent Reduction in the onset of irritation ([1]; 1% concentration): 66%

CC(=O)CCCCn1c(=O)c2c(ncn2C)n(C)c1=O [Pentoxifylline, pentoxifylline]
Percent Reduction in the onset of irritation ([1]; 1% concentration): 50%

CCCCOc1cc(CC2CNC(=O)N2)ccc1OC (centres unmarked) [Ro-12-1724]
Percent Reduction in the onset of irritation ([1]; 1% concentration): 57%

COc1ccc(C2CNC(=O)C2)cc1OC1CCCC1 (centres unmarked) [Rolipram]
Percent Reduction in the onset of irritation ([1]; 1% concentration): 69%

O=c1[nH]cnc2c1ncn2[C@@H]1O[C@@H]2COP(=O)(O)O[C@H]2[C@H]1O [cIMP, cyclic IMP]
Percent Reduction in the onset of irritation ([1]; 1% concentration): 42%
